Assays:
Type in all cases: cell-based
MCF7 = test: SRB cytotoxicity assay, MCF7; settings: for IC50: MCF7, SRB, mean ± SEM
Text: (§1) Eight different cancer cell lines were acquired from the Radiobiology and Experimental Radio Oncology lab, University Medical Center, Hamburg University, Hamburg, Germany. MCF7, MDA-MB-231 (breast cancer), and A549 (lung cancer) cells were maintained in RPMI medium while HCT116 (colon cancer), HepG2 (liver cancer), U87, U373 (glioblastoma), and HeLa (cervical cancer) were maintained in DMEM supplemented with 10% FBS and 1% penicillin/streptomycin (Sigma Aldrich, Missouri, USA). Normal human fibroblast (F180) cells were maintained in DMEM supplemented with 15% FBS. Normal human mammary epithelial cell line (HME1) were maintained in DMEM/F-12 medium supplemented with 10% FBS. All incubations were done at 37° C. in a humidified atmosphere of 5% CO2. All cell lines were authenticated by short tandem repeat (STR) profiling. The CDK4 knockout cells (provided by Dr. Samrein Ahmed, University of Sharjah, United Arab Emirates) were generated by CRISPR-CAS9 technology and were maintained in DMEM supplemented with 10% FBS.
(§2) The cytotoxic effects of HH32 and HH33 compounds were evaluated at various concentrations ranging from 0.0001 to 100 μM by sulphrhodamine-B (SRB) assay as described previously. The anti-proliferative activity was expressed as growth inhibitory concentration (IC50) values, which were calculated by the sigmoidal dose-response curve fitting method using Graph pad prism 6 software (GraphPad Software, San Diego, CA, USA).

HCT-116 = test: SRB cytotoxicity assay, HCT-116
Text: as §1, §2

HeLa = test: SRB cytotoxicity assay, HeLa
Text: as §1, §2

A549 = test: SRB cytotoxicity assay, A549; settings: for IC50: A549, SRB, mean ± SEM
Text: as §1, §2

MDA-MB-231 = test: SRB cytotoxicity assay, MDA-MB-231
Text: as §1, §2

[1] = tested on: MCF7, HCT-116 and A549 cells; test: Neutral comet assay; settings: for level of DNA damage (tail moment): 0.5 and 1 μM, 24 hours, three cell lines
Description: MCF7, HCT-116 and A549 cells were treated with […] of HH32 or HH33 compounds for 24 hours and control cells were treated with vehicle (DMSO). A group of cells was treated with doxorubicin as a reference drug using the same treatment conditions. Comet assay was performed in neutral condition to detect DNA double-strand breaks using comet assay kit (Trevigen Inc., Maryland, USA) according to the manufacturer's instructions. The tail moment, which reflect the amount of DNA damage in each nucleus, was calculated in at least 50 cells using OpenComet software.

[2] = tested on: MCF7, HCT116, HeLa and A549 cells; test: Cell cycle analysis by flow cytometry, four cell lines; settings: for G1 and S phases arrest: four cell lines
Description: (§3) The effect of the HH32 and HH33 compounds on the distribution of cell cycle at different time points (2, 4, 8, 24, 48, and 72 hours) was analyzed using flow cytometry. Briefly, the cells were harvested and fixed in 70% ethanol for 24 hours at −20° C. The fixed cells were treated with RNAase […] (Sigma Aldrich, Missouri, USA) and stained with propidium iodide […] (Sigma Aldrich, Missouri, USA). The data were acquired using BD Accuri C6 flow cytometer (Becton Dickenson, San Jose, CA, USA) and analysis was done using Flow Jo software (Tree Star, Inc, Ashland, OR, USA).

MCF7 cells = test: Transcriptomic analysis of HH33-treated MCF7 cells
Description: RNA extraction was carried out followed by cDNA synthesis using SuperScript VILO cDNA Synthesis kit (Invitrogen, Waltham, MA, USA) and amplification using Ion AmpliSeq gene expression core panel primers. The prepared library was purified using Agencourt AMPure XP beads (Beckman Coulter, California, USA) and quantified using Ion Library TaqMan™ Quantitation Kit (Applied Biosystems, Waltham, MA, USA). The libraries were further diluted to […] and pooled equally with four individual samples per pool. The pooled libraries were amplified using emulsion PCR on Ion OneTouch™ 2 instrument (OT2) and the enrichment was performed on Ion OneTouch™ ES following the manufacturer's instruction. Thus, prepared template libraries were then sequenced with Ion S5 XL Semiconductor sequencer using the Ion 540™ Chip. RNA-seq data were analyzed using Ion Torrent Software Suite version 5.4 and the alignment was carried out using modifications of the Torrent Mapping Alignment Program (TMAP) optimizing it for aligning the raw sequencing reads against reference sequence derived from hgl9 (GRCh37) assembly. The specificity and sensitivity was maintained by implementing a two-stage mapping approach by employing BWA-short, BWA-long, SSAHA [31], Super-maximal Exact Matching and Smith Waterman algorithm for optimal mapping. Raw read counts of the targeted genes were performed using Samtools (Samtools view —c -F 4-L bed_file bam_file) and the number of expressed transcripts was confirmed after Fragments Per Kilobase Million (FPKM) normalisation. Differentially expressed gene (DEG) analysis was performed using a script written in R programming language (version 3.6.3) with function calls to DESeq2 package from Bioconductor library sets. Raw read counts from RNASeq were normalized using quantile normalization. All counts ranked “0” were excluded. Differentially expressed genes between the two set of cell lines [HH33-treated (n=3), and untreated (n=3)] were assessed using 2 tailed t-test. Differentially expressed genes with p-value of <0.05, adjusted p-value<0.8 and 5-fold difference were included for pathway analysis using Metascape.

HeLa cells = test: Cell cycle analysis by flow cytometry, HeLa; settings: 1 μM, peak at 24 hours, Control 36.9%
Description: as §3

[3] = H33-treated vs DMSO-treated, DNA repair pathways

Q: With COC(=O)c1cc(NC2=NC(=O)C(=Cc3ccc(C)cc3)S2)ccc1OC(C)=O [HH32, Methyl 2-acetoxy-5-[(5-(4-methylbenzylidene)-4 (H)-oxo-1,3-thiazol-2-yl)-amino]benzoate] as the compound, how does the Selectivity index (MCF7; F180 versus MCF7) read?
A: 3.88

Q: And the Selectivity index (MCF7; HME1 versus MCF7)?
A: 7.8

Q: And the IC50 (MCF7)?
A: 3440 ± 320 nM

Q: And the Selectivity index (HCT-116; F180 versus HCT116)?
A: 11.4

Q: And the IC50 (HCT-116; HCT-116, SRB, mean ± SEM)?
A: 1170 ± 460 nM

Q: And the Selectivity index (HCT-116; HME1 versus HCT116)?
A: 22.9

Q: And the Selectivity index (HeLa; F180 versus HeLa)?
A: 22.2

Q: And the Selectivity index (HeLa; HME1 versus HeLa)?
A: 44.65

Q: What about the IC50 (HeLa; HeLa, SRB, mean ± SEM) of the same compound?
A: 600 ± 470 nM

Q: What about the IC50 (A549) of the same compound?
A: 6170 ± 380 nM

Q: And the Selectivity index (A549; F180 versus A549)?
A: 2.16

Q: And the Selectivity index (A549; HME1 versus A549)?
A: 4.3

Q: And the Selectivity index (MDA-MB-231; F180 versus MDA-MB-231)?
A: 0.87

Q: What about the Selectivity index (MDA-MB-231; HME1 versus MDA-MB-231) of the same compound?
A: 1.7

Q: What about the IC50 (MDA-MB-231; MDA-MB-231, SRB, mean ± SEM) of the same compound?
A: 15350 ± 80 nM

Q: What about the “level of DNA damage (tail moment)” value [1] of the same compound?
A: increased

Q: What about the “G1 and S phases arrest” value [2] of the same compound?
A: no signs

Q: Which results are given for COC(=O)c1cc(NC2=NC(=O)C(=Cc3ccc(N(C)C)cc3)S2)ccc1OC(C)=O [HH33, Methyl 2-acetoxy-5-[(5-(4-dimethylaminobenzylidene)-4 (H)-oxo-1,3-thiazol-2-yl)-amino]benzoate]?
A: Selectivity index (MCF7; F180 versus MCF7): 4.89; Selectivity index (MCF7; HME1 versus MCF7): 11.4; IC50 (MCF7): 810 ± 340 nM; Selectivity index (HCT-116; F180 versus HCT116): 13.48; potency compared with doxorubicin (HCT-116; HCT-116 cells): nearby equipotent; Selectivity index (HCT-116; HME1 versus HCT116): 31.9; Selectivity index (HeLa; F180 versus HeLa): 16.3; Selectivity index (HeLa; HME1 versus HeLa): 38.5; activity compared with doxorubicin (HeLa; HeLa cells): superior activity than doxorubicin; IC50 (A549): 2930 ± 830 nM; Selectivity index (A549; F180 versus A549): 1.3; Selectivity index (A549; HME1 versus A549): 3.2; Selectivity index (MDA-MB-231; F180 versus MDA-MB-231): 0.99; Selectivity index (MDA-MB-231; HME1 versus MDA-MB-231): 2.3; Fold change (H_Mean/D_Mean) CDC45 (MCF7 cells; [3]): 0.1426; Fold change (H_Mean/D_Mean) CHAF1B (MCF7 cells; [3]): 0.5251; Fold change (H_Mean/D_Mean) DDX11 (MCF7 cells; [3]): 0.4961; Fold change (H_Mean/D_Mean) ESCO2 (MCF7 cells; [3]): 0.2719; Fold change (H_Mean/D_Mean) GTF2H2C (MCF7 cells; [3]): 0.2907; Fold change (H_Mean/D_Mean) MCM6 (MCF7 cells; [3]): 0.4195; Fold change (H_Mean/D_Mean) MMS22L (MCF7 cells; [3]): 0.2144; Fold change (H_Mean/D_Mean) PIAS4 (MCF7 cells; [3]): 0.6961; Fold change (H_Mean/D_Mean) POLA1 (MCF7 cells; [3]): 0.196; Fold change (H_Mean/D_Mean) RAD17 (MCF7 cells; [3]): 0.3003; Fold change (H_Mean/D_Mean) RAD51 (MCF7 cells; [3]): 0.2505; Fold change (H_Mean/D_Mean) RAD51AP1 (MCF7 cells; [3]): 0.2877; Fold change (H_Mean/D_Mean) RECQL (MCF7 cells; [3]): 0.212; Fold change (H_Mean/D_Mean) RIF1 (MCF7 cells; [3]): 0.3166; Fold change (H_Mean/D_Mean) RNF111 (MCF7 cells; [3]): 0.5331; Fold change (H_Mean/D_Mean) RNF168 (MCF7 cells; [3]): 0.2605; Fold change (H_Mean/D_Mean) TRIP13 (MCF7 cells; [3]): 0.4436; Fold change (H_Mean/D_Mean) UBE2N (MCF7 cells; [3]): 0.3688; Fold change (H_Mean/D_Mean) UBE2W (MCF7 cells; [3]): 0.224; Fold change (H_Mean/D_Mean) ZSWIM7 (MCF7 cells; [3]): 0.3144; pathways related to DNA repair and cell cycle progression (MCF7 cells; hypergeometric test): down-regulation; G2/M phase accumulation (HeLa cells): 93.9%; level of DNA double strand breaks compared with doxorubicin ([1]; 1 μM, same concentration, three tested cell lines): higher than doxorubicin; level of DNA damage (tail moment) [1]: increased; comet length compared with HH32-treated cells ([1]; MCF7 and HCT-116 cells): markedly higher; percentage of cancer cells arrested at the G2/M border [2]: up to 90%; G1 and S phases arrest [2]: no signs

From US20250002467A1, “DESIGN, SYNTHESIS AND MECHANISMS OF ANTICANCER ACTIVITY OF NEW ACETYLATED 5-AMINOSALICYLATE-THIAZOLINONE HYBRID DERIVATIVES” (University of Sharjah, priority 2023, published 2025)
